Experimental data as given in US5134073A, “Microbiologically produced N-acetyl-2,3-didehydroleucine acylase” (Degussa Aktiengesellschaft, priority 1989, dated 1992).
Several values for one entry are separate records, joined by “and”; a condition that tells them apart may be missing. Equal values may be shown once.

Columns and labels:
[1] = system: Zoogloea ramigera ABI 1; experiment: Induction of N-acetyldehydroleucine acylase in agitated cultures, changing of the inductor; format: cell-based; conditions: inductor 3 g/l; for Acylase activity after 60 hours of incubation as a function of the inductor: agitated culture, pH 7
Procedure: All raw extracts were tested at least with N-acetyldehydroleucine and N-acetyldehydroisoleucine but, in most cases, also with N-acetyldehydrovaline. […] The enzymatic reaction was stopped in the batches incubated at 30° C. by adding 0.25 ml color reagent (1 g/l 2,4-dinitrophenyl hydrazine in 2 N HCl). After further incubation at 30° C. for 10 minutes with N-acetyldehydroleucine as substrate or 25 minutes with the isoleucine or valine derivative, 1.5 ml 2,5 N NaOH was added.
The keto acid released by the enzymatic hydrolysis forms, together with the 2,4-dinitrophenyl hydrazine, a Schiff's base colored red in the alkaline whose absorption was measured in a spectral photometer at 442 nm against a batch without N-acetyldehydroamino acid (=enzyme blank). A blank reading was deducted from these extinction values which blank reading is obtained if the extinction value of a batch only with buffer (=buffer blank) is deducted from that of a batch with buffer and N-acetyldehydroamino acid but without raw extract (=substrate blank). The concentration of the product produced was determined with a calibrated reference for the corresponding keto acid. The enzyme activity is indicated in international units. One unit (U) corresponds to an amount of 1 μmole released keto acid per minute.
Different substances were added in a concentration of 3 g/l as inductors into agitated cultures with a medium of mineral salt solution (cf. Example 1) with 0.5 g/l yeast extract and 0.5 g/l peptone at pH 7. The technology for agitated cultures is described in Example 1 a).

[2] = system: N-acetyldehydroleucine acylase; experiment: Acylase activity versus concentration of N-acetyldehydroamino acids (kinetic data); format: biochemical, Zoogloea ramigera
Procedure: The activity of the acylase was determined under standard conditions (cf. Example 8a)) with various N-acetyldehydroamino acids in concentrations of 0.1 to 300 mM. A second series of measurements with N-acetyldehydroleucinein the above-indicated concentration range was placed in 0.1 M tris/phosphoric acid buffer.
Reaction conditions: 0.1 M glycine, pH 9, 30° C.
Adaptation to the equation v = Vmax. · S/(KM + S +

[3] = system: N-acetyldehydroleucine acylase; experiment: Hydrolysis of other compounds by the acylase (TLC / amino acid analyzer); format: biochemical, Zoogloea ramigera
Procedure: A qualitative check was performed for 81 compounds to see whether they are accepted as substrate by the acylase. The test batches contained:
After 16 and 40 hours incubation at 25° C., specimens were taken from the batches, most of which specimens were analyzed in comparison to substrate standards by means of thin-layer chromatography (70% (v/v) ethanol as mobile solvent). The detection took place with ninhydrin spray reagent. A few specimens were tested in addition or alternatively with the amino acid analyzer.
The amino acids produced from the amino acid amides by means of the action of acylase were detected quantitatively with the amino acid analyzer.

[4] = system: N-acetyldehydroleucine acylase; experiment: Hydrolysis of hydantoins by the acylase; format: biochemical, Zoogloea ramigera; conditions: 25 mM substrate, 1 U/ml acylase, tris/phosphoric acid pH 9, 11.5 hours at 30° C.; ADL = 100%
Procedure: The test batches for the hydrolysis of hydantoins had the following composition:
25 mM substrate or buffer
50 mM tris/phosphoric acid buffer
Isopropylhydantoin, hydantoic acid and dihydrouracil were used as substrates. After 11.5 hours at 30° C., 175 μl 12% (w/v) trichloroacetic acid and 25 μl analytical reagent (10 % (w/v) […] in 6 N HCl) were added, precipitated protein centrifuged off in an Eppendorf table centrifuge and the absorption in the supernatants measured at 450 nm.

[5] = system: ADL acylase; experiment: Influence of glycine on the reaction rate; format: biochemical, Zoogloea ramigera
Procedure: The reaction of glycine in 0 to 1.2 molar concentration dissolved in 0.1 M tris/HCl buffer was determined under standard conditions (example 8a).

| Compound | Acylase activity after 60 hours of incubation as a function of the inductor [1] [U/mg] | % Vmax ([2]; glycine, 0.1 M, pH 9, 30° C.) [%] | Km ([2]; glycine, 0.1 M, pH 9, 30° C.) | other results |
| --- | --- | --- | --- | --- |
| CCC(C)=C(NC(C)=O)C(=O)O [ADI, N-acetyl-2,3-didehydroisoleucine] | 0.172 | 14 | 5.77 mM | Substrate specificity: hydrolysis by the acylase [3]: hydrolyzes |
| CC(=O)NC(=CC(C)C)C(=O)O [ADL, N-acetyl-2,3-didehydroleucine] | 0.222 | 100 | 4.5 mM and 4.53 mM | Induction capacity [1]: highest induction capacity; Km ([2]; glycine, 0.1 M, pH 9, 30° C., listed as N-acetyl-2,3-didehydroleucine): 4.5 mM; % Vmax ([2]; tris-phosphoric acid 0.1 M): 62%; Km ([2]; tris-phosphoric acid 0.1 M): 7.01 mM; rel. activity (%) ([3]; 50 mM test substrate, 0.1 M tris/HCl pH 9, 25° C., hydrolysis rate with N-acetyldehydroleucine = 100%): 100.0% |
| CC(=O)NC(Cc1ccccc1)C(=O)O (racemic) [Ac-D,L-phenylalanine] | 0.031 |  |  |  |
| CC[C@H](C)[C@H](NC(C)=O)C(=O)O [Ac-L-isoleucine] | 0.039 |  |  |  |
| O=C1CCNC(=O)N1 [Dihydrouracil] |  |  |  | rel. activity (%) [4]: 0% |
| CC(C)C1NC(=O)NC1=O (stereo not shown) [Isopropy hydantoin] |  |  |  | rel. activity (%) [4]: 0% |
| CC(=O)NC(Cc1ccc(O)cc1)C(=O)O (racemic) [Ac-D,L-tyrosine] | 0.011 |  |  |  |
| CC(=O)NC(C(=O)O)C(C)C (racemic) [Ac-D,L-valine] | 0.031 |  |  |  |
| CC(=O)NC(C(=O)O)=C(C)C [ADV, N-acetyl-2,3-didehydrovaline] | 0.121 | 23 | 20.9 mM | Substrate specificity: hydrolysis by the acylase [3]: hydrolyzes |
| CC(=O)N[C@@H](CC(C)C)C(=O)O [Ac-L-leucine, N-acetyl-L-leucine] | 0.018 |  |  |  |
| NCC(=O)O [Glycine, glycine] |  |  |  | Influence of activators on substrate splitting [5]: accelerates the substrate splitting as a function of the concentration; EC50 ([5]; 0.1 M tris/HCl buffer, calculation according to Ingami and Murachi, read-out: Glycine concentration necessary for one-half the maximum reaction acceleration): 90 mM |
| CC(=O)NC(=Cc1ccccc1)C(=O)O [ACA, 2-acetylamino cinnamic acid] | 0.016 | 46 | 2.62 mM | Induction capacity [1]: only slightly active; Substrate specificity: hydrolysis by the acylase [3]: hydrolyzes |
| CC(=O)NC(Cc1c[nH]c2ccccc12)C(=O)O (racemic) [Ac-D,L-tryptophan] | 0.018 |  |  |  |
